For one data set, the target named is T1, stromelysin (MMP-3) (Homo sapiens, UniProt P08254).
T1 construct: enzymatic activity of the catalytic domains of human stromelysin and of neutrophil collagenase; made in house
The data set can be described thus: Enzymatic activity of the catalytic domain of human stromelysin (fluorogenic substrate). Type of data set: biochemical. The conditions noted are these: pH=6.5, 15 min preincubation, fluorescence 328 nm (ex)/393 nm (em). As for the experimental part: (§1) Preparation and determination of the enzymatic activity of the catalytic domains of human stromelysin and of neutrophil collagenase:
(§2) The enzymes stromelysin (MMP-3) and neutrophil collagenase (MMP-8) were prepared according to Ye et al. (Biochemistry; 31 (1992) pages 11231–11235). To measure the enzyme activity or the enzyme inhibitor action, 70 μl of buffer solution and 10 μl of enzyme solution are incubated for 15 min with 10 μl of a 10% strength (v/v) aqueous dimethyl sulfoxide solution, which optionally contains the enzyme inhibitor. After addition of 10 μl of a 10% strength (v/v) aqueous dimethyl sulfoxide solution which contains 1 mmol/L of the substrate, the enzyme reaction is monitored by fluorescence spectroscopy (328 nm (ex)/393 nm(em)). The enzyme activity is shown as the extinction increase/min. The IC50 values listed in Table 2 are determined as those inhibitor concentrations which in each case led to a 50% inhibition of the enzyme.
(§3) The buffer solution contains 0.05% Brij (Sigma, Deisenhofen, Germany) and also 0.1 mol/L Tris/HCl, 0.1 mol/L NaCl, 0.01 mol/L CaCl2 and 0.1 mol/L piperazine-N,N′-bis[2-ethanesulfonic acid] (pH=6.5). The enzyme solution contains 5 μg/ml of one of the enzyme domains prepared according to Ye et al. The substrate solution contains 1 mmol/L of the fluorogenic substrate (7-methoxycoumarin-4-yl)acetyl-Pro-Leu-Gly-Leu-3-(2′,4′-dinitrophenyl)-L-2,3-diaminopropionyl-Ala-Arg-NH2 (Bachem, Heidelberg, Germany).

Data set [1] has as its target T2, neutrophil collagenase (MMP-8) (Homo sapiens, UniProt P22894).
T2 construct: enzymatic activity of the catalytic domains of human stromelysin and of neutrophil collagenase; made in house
The data set can be described thus: Enzymatic activity of the catalytic domain of neutrophil collagenase (fluorogenic substrate). The class given is biochemical. The note with it: pH=6.5, 15 min preincubation, fluorescence 328 nm (ex)/393 nm (em), read-out: Neutr. collagenase IC50. How it is done:
as §1, §2, §3

SMILES strings stand for the structures.

T1 sequence (P08254 100-272 limits assumed): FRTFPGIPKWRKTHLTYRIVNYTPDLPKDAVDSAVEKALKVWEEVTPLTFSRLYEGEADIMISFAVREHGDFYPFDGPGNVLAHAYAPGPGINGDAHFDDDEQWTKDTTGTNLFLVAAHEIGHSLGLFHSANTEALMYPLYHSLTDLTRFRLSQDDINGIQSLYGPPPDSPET
T2 sequence (P22894 100-262 limits assumed): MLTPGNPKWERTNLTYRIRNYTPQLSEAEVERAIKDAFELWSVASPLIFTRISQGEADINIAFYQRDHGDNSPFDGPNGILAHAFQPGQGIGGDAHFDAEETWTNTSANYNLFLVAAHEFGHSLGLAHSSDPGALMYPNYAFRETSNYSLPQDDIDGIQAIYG

As for `O=C(CC[C@H](NS(=O)(=O)c1ccc(-c2ccc(N3CCCC3)cc2)cc1)C(=O)O)Nc1ccc(F)cc1` [Example 90], the melting point is > 245 °C (dec.). At stromelysin (MMP-3), this molecule yielded a 50% inhibitory concentration (IC50) of 10 nM. Moreover, the half-inhibitory concentration (IC50) in data set [1] was 2 nM. `O=C(O)C[C@H](NS(=O)(=O)c1ccc(-c2ccccc2)cc1)C(=O)O` [Example 37] registered a melting point of 186.7 °C.

For the molecule `NC(=O)C[C@@H](NS(=O)(=O)c1ccc(-c2ccc(Cl)cc2)cc1)C(=O)O` [Example 44], the IC50 at stromelysin (MMP-3) is 90 nM; in data set [1], 10 nM.

With `O=C(O)[C@@H](CCO)NS(=O)(=O)c1ccc(Oc2ccccc2)cc1` (racemic) [Example 1, N-(Phenoxybenzenesulfonyl) homoserine], the melting point worked out at 134 °C. This molecule also yielded an IC50 at stromelysin (MMP-3) of 400 nM. For the same molecule, the 50% inhibitory concentration (IC50) in data set [1] came to 10 nM. For the molecule `O=C(CC[C@H](NS(=O)(=O)c1ccc(-c2ccccc2)cc1)C(=O)O)Nc1ccccc1Cl` [Example 74], the melting point was 187.5 to 188.5 °C. At stromelysin (MMP-3), this molecule displayed an IC50 of 100 nM. Moreover, the IC50 in data set [1] was 10 nM. `O=C(O)C(Cc1cccnc1)NS(=O)(=O)c1ccc(-c2ccc(Cl)cc2)cc1` (racemic) [Example 88]: the figures for the concentration for half-maximal inhibition (IC50) (at stromelysin (MMP-3); in data set [1]) were 100 nM and 7 nM, respectively. In turn, `CN(C)c1ccc(-c2ccc(S(=O)(=O)N[C@H](CCC(=O)O)C(=O)O)cc2)cc1` [Example 46] had a melting point of 165 °C.

The molecule `O=C(CC[C@H](NS(=O)(=O)c1ccc(-c2ccccc2)cc1)C(=O)O)Nc1ccc([N+](=O)[O-])cc1` [Example 75] gave a melting point of 232 to 233 °C. For the same molecule, the IC50 against stromelysin (MMP-3) worked out at 300 nM. Also, the concentration for half-maximal inhibition (IC50) in data set [1] is 20 nM.

Turning to `CSCC[C@@H](NS(=O)(=O)c1ccc(-c2ccon2)s1)C(=O)O` [Example 13], the melting point fell in the range of 70 to 76 °C. For the molecule `O=C(CC[C@H](NS(=O)(=O)c1ccc(-c2ccccc2)cc1)C(=O)O)Nc1ccc(C(F)(F)F)cc1` [Example 85], the melting point is 265 °C. For the same molecule, the IC50 at stromelysin (MMP-3) is 3000 nM. For the same molecule, in data set [1], the IC50 was found to be 30 nM. The matching figures for `O=C(O)CNS(=O)(=O)c1ccc(Oc2ccc(Cl)cc2)cc1` [Example 3]: 162 to 164 °C, 20000 nM and 200 nM.

For `NC(=O)CC[C@@H](NS(=O)(=O)c1ccc(-c2ccccc2)cc1)C(=O)O` [Example 72], the IC50 against stromelysin (MMP-3) came to 600 nM; in data set [1], 20 nM. For `O=C(O)[C@@H](CCc1ccccc1)NS(=O)(=O)c1ccc(-c2ccc(Cl)cc2)cc1` [Example 25], in that order: 200 nM and 40 nM.

With `CS(=O)(=O)CC[C@H](NS(=O)(=O)c1ccc(-c2ccc(Cl)cc2)cc1)C(=O)O` [Example 17], the half-inhibitory concentration (IC50) against stromelysin (MMP-3) amounted to 100 nM; in data set [1], 20 nM. In the case of `O=C(O)C[C@@H](NS(=O)(=O)c1ccc(-c2ccccc2)cc1)C(=O)O` [Example 38], the melting point is > 55 °C.

`COc1ccc(CC(NS(=O)(=O)c2ccc(-c3ccc(N(C)C)cc3)cc2)C(=O)O)cc1OC` (racemic) [Example 24] registered a melting point of 230 °C. In turn, `O=C(CC[C@H](NS(=O)(=O)c1ccc(-c2ccccc2)cc1)C(=O)O)Nc1ccc(C(=O)O)cc1` [Example 50] had a melting point of 266 °C. Still for that read-out and setting: the value for `O=C(CCC(NS(=O)(=O)c1ccc(-c2ccccc2)cc1)C(=O)O)Nc1ccccc1` (racemic) [Example 47] was 227 to 230 °C. For the molecule `O=C(O)C(NS(=O)(=O)c1ccc(-c2ccc(Cl)cc2)cc1)C(O)c1ccccc1` (stereo not shown) [Example 34], the results for the 50% inhibitory concentration (IC50) (on stromelysin (MMP-3); in data set [1]) were 200 nM and 20 nM, respectively. The matching figures for `O=C(O)C(NS(=O)(=O)c1ccc(-c2ccc(Cl)cc2)cc1)C(O)c1cccs1` (stereo not shown) [Example 36]: 200 nM and 10 nM. The matching figures for `C=CC(NS(=O)(=O)c1ccc(-c2ccc(Cl)cc2)cc1)C(=O)O` (racemic) [Example 6]: 200 nM and 20 nM. In turn, `CN(C)c1ccc(-c2ccc(S(=O)(=O)N[C@@H](CCC(N)=O)C(=O)O)cc2)cc1` [Example 49] yielded a melting point of 213 to 215 °C.

For the molecule `O=C(O)[C@H](CCC(=O)N1CCc2ccccc21)NS(=O)(=O)c1ccc(-c2ccc(N3CCCC3)cc2)cc1` [Example 101], the melting point is > 130 °C (dec.). `O=C(c1ccccc1)c1ccc(C[C@@H](NS(=O)(=O)c2ccc(-c3ccc(Cl)cc3)cc2)C(=O)O)cc1` [Example 23]: the IC50 is 1000 nM on stromelysin (MMP-3) and 600 nM in data set [1]. The matching figures for `NC(=O)CC[C@@H](NS(=O)(=O)c1ccc(-c2ccc(Cl)cc2)cc1)C(=O)O` [Example 51]: 50 nM and 5 nM. `O=C(O)[C@H](Cc1c[nH]cn1)NS(=O)(=O)c1ccc(Oc2ccccc2)cc1` [Example 30]: the melting point fell in the range of 183 to 185 °C. `CSCC[C@@H](NS(=O)(=O)c1ccc(-c2ccc(Cl)cc2)cc1)C(=O)O` [Example 10]: the figures for the IC50 (at stromelysin (MMP-3); in data set [1]) were 90 nM and 10 nM, respectively. Turning to `O=C(C[C@H](NS(=O)(=O)c1ccc(-c2ccc(Cl)cc2)cc1)C(=O)O)OCc1ccccc1` [Example 41], the IC50 on stromelysin (MMP-3) was determined as 200 nM; in data set [1] it was 30 nM.

`CSCC[C@@H](NS(=O)(=O)c1ccc(-c2ccccn2)s1)C(=O)O` [Example 12] gave a melting point of 115 to 125 °C. As to `O=C(O)[C@H]1C[C@@H](O)CN1S(=O)(=O)c1ccc(-c2ccc(Cl)cc2)cc1` [Example 2, (2R)-1-(4-Chlorobiphenylsulfonyl)-4-cis-hydroxyproline], the values for the half-inhibitory concentration (IC50) (against stromelysin (MMP-3); in data set [1]) were 100 nM and 90 nM, respectively. For `O=C(O)[C@@H](Cc1csc2ccccc12)NS(=O)(=O)c1ccc(-c2ccc(Cl)cc2)cc1` [Example 28], in that order: 300 nM and 60 nM. As for `O=C(O)C(NS(=O)(=O)c1ccc(-c2ccc(Cl)cc2)cc1)c1ccsc1` (racemic) [Example 26], the IC50 on stromelysin (MMP-3) is 400 nM; in data set [1] it was 40 nM. The matching figures for `C[S+]([O-])CC[C@@H](NS(=O)(=O)c1ccc(-c2ccc(Cl)cc2)cc1)C(=O)O` (stereo partly shown) [Example 15]: 100 nM and 10 nM. Regarding `CN(C)c1ccc(-c2ccc(S(=O)(=O)NC(CCC(=O)Nc3ccccc3)C(=O)O)cc2)cc1` (racemic) [Example 48], the melting point was 212 to 214 °C. Regarding `O=C(O)CCN(CC(=O)O)S(=O)(=O)c1ccc(Oc2ccc(Cl)cc2)cc1` [Example 45], the melting point was 169 to 171 °C. As for `O=C(O)C(CSC1=NCCS1)NS(=O)(=O)c1ccc(-c2ccc(Cl)cc2)cc1` (racemic) [Example 19], the IC50 against stromelysin (MMP-3) came to 500 nM; in data set [1], 50 nM. For `O=C(O)C(CCc1c[nH]c2ccccc12)NS(=O)(=O)c1ccc(-c2ccc(Cl)cc2)cc1` (racemic) [Example 105], in that order: 30 nM and 10 nM. Turning to `O=C(O)[C@@H](CO)NS(=O)(=O)c1ccc(-c2ccc(Cl)cc2)cc1` [Example 7], the half-inhibitory concentration (IC50) was found to be 200 nM against stromelysin (MMP-3) and 40 nM in data set [1].

The molecule `NNC(=O)CC[C@H](NS(=O)(=O)c1ccc(-c2ccccc2)cc1)C(=O)O` [Example 59] had a melting point of 205 to 207 °C. For the molecule `O=C(O)[C@@H](Cc1c[nH]c2ccccc12)NS(=O)(=O)c1ccc(-c2ccc(Cl)cc2)cc1` [Example 29, (R)-N-(4-Chlorobiphenylsulfonyl)tryptophan], the figures for the 50% inhibitory concentration (IC50) (against stromelysin (MMP-3); in data set [1]) were 80 nM and 9 nM, respectively. The molecule `O=C(O)C[C@@H](C(=O)O)N(Cc1ccncc1)S(=O)(=O)c1ccc(-c2ccccc2)cc1` [Example 43] displayed a melting point of 105 °C. Take `CS(=O)(=O)CC[C@@H](NS(=O)(=O)c1ccc(-c2ccc(Cl)cc2)cc1)C(=O)O` [Example 16]: the figures for the half-maximal inhibitory concentration (IC50) (at stromelysin (MMP-3); in data set [1]) were 70 nM and 7 nM, respectively. The matching figures for `O=C(O)[C@H](CSCc1ccccc1)NS(=O)(=O)c1ccc(-c2ccc(Cl)cc2)cc1` [Example 32]: 200 nM and 40 nM. For the molecule `CP(=O)(O)CC[C@H](NS(=O)(=O)c1ccc(-c2ccc(Cl)cc2)cc1)C(=O)O` [Example 104], the figures for the IC50 (on stromelysin (MMP-3); in data set [1]) were 40 nM and 5 nM, respectively. For `O=C(O)C[C@H](NS(=O)(=O)c1ccc(-c2ccc(Cl)cc2)cc1)C(=O)OCc1ccccc1` [Example 42], in that order: 400 nM and 30 nM. `CN(CC(=O)O)S(=O)(=O)c1ccc(Oc2ccc(Cl)cc2)cc1` [Example 4] gave a melting point of 128 to 130 °C. In turn, `O=C(O)[C@H](CCC(=O)N1CCc2ccccc21)NS(=O)(=O)c1ccc(-c2ccccc2)cc1` [Example 100] had a melting point of 182.5 to 183.5 °C. Moreover, the half-inhibitory concentration (IC50) in data set [1] amounted to 20 nM. In turn, `O=C(O)[C@@H]1CN1S(=O)(=O)c1ccc(-c2ccccc2)cc1` (stereo partly shown) [Example 64] returned a melting point of 138 to 139 °C.
